Measured values as given in article PMC5218480 (PLoS ONE, 2017).

Test system: MV-4-11 cells
Assay: Gene expression microarray analysis (Affymetrix PrimeView) and GSEA
Assay type: cell-based, human
Design: RFU PODN (11730768_x_at) / Fold change /veh PODN (11730768_x_at) / RFU LINC00158 (11744669_a_at) / Fold change /veh LINC00158 (11744669_a_at) / RFU DUSP10 (11751237_a_at) / Fold change /veh DUSP10 (11751237_a_at) / RFU ID3 (11757404_x_at) / Fold change /veh ID3 (11757404_x_at) / RFU PLEKHG5 (11737974_s_at) / Fold change /veh PLEKHG5 (11737974_s_at) / RFU LRRC4B (11730491_at) / Fold change /veh LRRC4B (11730491_at) / RFU GIMAP4 (11747438_a_at) / Fold change /veh GIMAP4 (11747438_a_at) / RFU KRT8 (11758183_x_at) / Fold change /veh KRT8 (11758183_x_at) / RFU CNN1 (11734310_a_at) / Fold change /veh CNN1 (11734310_a_at) / RFU VPS37D (11726825_at) / Fold change /veh VPS37D (11726825_at) / RFU C10orf10 (11716522_x_at) / Fold change /veh C10orf10 (11716522_x_at) / RFU KIR2DL2 /// KIR2DL4 /// KIR2DL5A /// KIR2DL5B /// KIR2DS1 /// KIR2DS2 /// KIR2DS3 /// KIR2DS4 /// KIR3DL3 /// KIR3DL3 /// KIR3DS1 (11738374_at) / Fold change /veh KIR2DL2 /// KIR2DL4 /// KIR2DL5A /// KIR2DL5B /// KIR2DS1 /// KIR2DS2 /// KIR2DS3 /// KIR2DS4 /// KIR3DL3 /// KIR3DL3 /// KIR3DS1 (11738374_at) / RFU C1QL1 (11718748_at) / Fold change /veh C1QL1 (11718748_at) / RFU TMPRSS4 (11747572_a_at) / Fold change /veh TMPRSS4 (11747572_a_at) / RFU HAMP (11756126_x_at) / Fold change /veh HAMP (11756126_x_at) / RFU RNFT2 (11725882_a_at) / Fold change /veh RNFT2 (11725882_a_at) / RFU NR4A2 (11747474_a_at) / Fold change /veh NR4A2 (11747474_a_at) / RFU ABCC12 (11746883_a_at) / Fold change /veh ABCC12 (11746883_a_at) / RFU TMEM136 (11760407_x_at) / Fold change /veh TMEM136 (11760407_x_at) / RFU CLDN22 /// WWC2 (11732394_at) / Fold change /veh CLDN22 /// WWC2 (11732394_at) / RFU HLA-DPB1 (11760878_x_at) / Fold change /veh HLA-DPB1 (11760878_x_at) / RFU SPINT1 (11716480_a_at) / Fold change /veh SPINT1 (11716480_a_at) / RFU GAP43 (11754022_s_at) / Fold change /veh GAP43 (11754022_s_at) / RFU A4GNT (11735810_at) / Fold change /veh A4GNT (11735810_at) / RFU PRB3 (11715151_x_at) / Fold change /veh PRB3 (11715151_x_at) / RFU TUBB4B (11761932_at) / Fold change /veh TUBB4B (11761932_at) / RFU CAPN14 (11732068_a_at) / Fold change /veh CAPN14 (11732068_a_at) / RFU TMCC2 (11721928_a_at) / Fold change /veh TMCC2 (11721928_a_at) / RFU IRGQ (11745062_a_at) / Fold change /veh IRGQ (11745062_a_at) / RFU FAM174B (11720279_a_at) / Fold change /veh FAM174B (11720279_a_at) / RFU TMPRSS4 (11748680_a_at) / Fold change /veh TMPRSS4 (11748680_a_at) / RFU FAM212B (11763350_a_at) / Fold change /veh FAM212B (11763350_a_at) / RFU PLEKHG5 (11743358_a_at) / Fold change /veh PLEKHG5 (11743358_a_at) / RFU ZSCAN30 (11745921_a_at) / Fold change /veh ZSCAN30 (11745921_a_at) / RFU CMKLR1 (11741424_a_at) / Fold change /veh CMKLR1 (11741424_a_at) / RFU LOC101060620 /// MAPK8IP1 (11723275_at) / Fold change /veh LOC101060620 /// MAPK8IP1 (11723275_at) / RFU SPTSSB (11747773_x_at) / Fold change /veh SPTSSB (11747773_x_at) / RFU PRSS12 (11739890_at) / Fold change /veh PRSS12 (11739890_at) / RFU BIN1 (11741810_x_at) / Fold change /veh BIN1 (11741810_x_at) / RFU WNT11 (11732464_a_at) / Fold change /veh WNT11 (11732464_a_at) / RFU C10orf10 (11716521_a_at) / Fold change /veh C10orf10 (11716521_a_at) / RFU C5orf56 (11738089_at) / Fold change /veh C5orf56 (11738089_at) / RFU CYB561 (11721691_x_at) / Fold change /veh CYB561 (11721691_x_at) / RFU ANKRD19P (11752326_a_at) / Fold change /veh ANKRD19P (11752326_a_at) / RFU OR2T12 /// OR2T33 /// OR2T8 (11738714_s_at) / Fold change /veh OR2T12 /// OR2T33 /// OR2T8 (11738714_s_at) / RFU VCAN (11748164_a_at) / Fold change /veh VCAN (11748164_a_at) / RFU JSRP1 (11732532_at) / Fold change /veh JSRP1 (11732532_at) / RFU KRTAP10-11 (11738290_x_at) / Fold change /veh KRTAP10-11 (11738290_x_at) / RFU MYO3A (11730013_a_at) / Fold change /veh MYO3A (11730013_a_at) / RFU EBF3 (11725865_a_at) / Fold change /veh EBF3 (11725865_a_at) / RFU CAMK2N1 (11719241_x_at) / Fold change /veh CAMK2N1 (11719241_x_at) / RFU C5orf56 (11738088_a_at) / Fold change /veh C5orf56 (11738088_a_at) / RFU OLFML3 (11715873_a_at) / Fold change /veh OLFML3 (11715873_a_at) / RFU LOC100653217 /// NTM (11731650_a_at) / Fold change /veh LOC100653217 /// NTM (11731650_a_at) / RFU MAPK11 (11762145_a_at) / Fold change /veh MAPK11 (11762145_a_at) / RFU FIZ1 (11724087_x_at) / Fold change /veh FIZ1 (11724087_x_at) / RFU OASL (11726364_x_at) / Fold change /veh OASL (11726364_x_at) / RFU SOX15 (11748057_x_at) / Fold change /veh SOX15 (11748057_x_at) / RFU CD79A (11719716_a_at) / Fold change /veh CD79A (11719716_a_at) / RFU HIST1H1D (11736915_at) / Fold change /veh HIST1H1D (11736915_at) / RFU CASKIN2 (11723855_a_at) / Fold change /veh CASKIN2 (11723855_a_at) / RFU LOC730098 (11760151_x_at) / Fold change /veh LOC730098 (11760151_x_at) / RFU OR4N2 (11742367_at) / Fold change /veh OR4N2 (11742367_at) / RFU PRRT2 (11749266_a_at) / Fold change /veh PRRT2 (11749266_a_at) / RFU SNX32 (11753110_a_at) / Fold change /veh SNX32 (11753110_a_at) / RFU CDHR5 (11726645_a_at) / Fold change /veh CDHR5 (11726645_a_at) / RFU RCAN1 (11760418_a_at) / Fold change /veh RCAN1 (11760418_a_at) / RFU FAM167A (11723789_a_at) / Fold change /veh FAM167A (11723789_a_at) / RFU FAM26E (11764081_at) / Fold change /veh FAM26E (11764081_at) / RFU ISYNA1 (11749810_s_at) / Fold change /veh ISYNA1 (11749810_s_at) / RFU ACY1 (11761880_at) / Fold change /veh ACY1 (11761880_at) / RFU 11764098_at / Fold change /veh 11764098_at / RFU SAMD14 (11745864_x_at) / Fold change /veh SAMD14 (11745864_x_at) / RFU NPB (11741838_a_at) / Fold change /veh NPB (11741838_a_at) / RFU TMPRSS6 (11731388_a_at) / Fold change /veh TMPRSS6 (11731388_a_at) / RFU KRTAP10-2 (11738614_at) / Fold change /veh KRTAP10-2 (11738614_at) / RFU ARHGAP8 /// PRR5-ARHGAP8 (11727945_x_at) / Fold change /veh ARHGAP8 /// PRR5-ARHGAP8 (11727945_x_at) / RFU KRTAP5-7 /// NADSYN1 (11734609_at) / Fold change /veh KRTAP5-7 /// NADSYN1 (11734609_at) / RFU RASL12 (11751679_a_at) / Fold change /veh RASL12 (11751679_a_at) / RFU CDKN2B (11736163_a_at) / Fold change /veh CDKN2B (11736163_a_at) / RFU PRF1 (11729649_at) / Fold change /veh PRF1 (11729649_at) / RFU, ZNF638 /// ZNF638-IT1 / Fold change vs veh, ZNF638 /// ZNF638-IT1 / RFU, PANK3 / Fold change vs veh, PANK3 / RFU, SH3YL1 / Fold change vs veh, SH3YL1 / RFU, ZEB2 / Fold change vs veh, ZEB2 / RFU, NRIP1 / Fold change vs veh, NRIP1 / RFU, PTTG1IP / Fold change vs veh, PTTG1IP / RFU, CAPN2 / Fold change vs veh, CAPN2 / RFU, MED14 / Fold change vs veh, MED14 / RFU, SNORA58 / Fold change vs veh, SNORA58 / RFU, C1orf63 / Fold change vs veh, C1orf63 / RFU, LRRFIP1 / Fold change vs veh, LRRFIP1 / RFU, NDUFAF7 / Fold change vs veh, NDUFAF7 / RFU, SLC12A2 / Fold change vs veh, SLC12A2 / RFU, IBTK / Fold change vs veh, IBTK / RFU, ESF1 / Fold change vs veh, ESF1 / Fold change vs veh, TMEM50B / RFU, TAOK1 / Fold change vs veh, TAOK1 / RFU, ACBD3 / Fold change vs veh, ACBD3 / RFU, TMA16 / Fold change vs veh, TMA16 / RFU, RWDD3 / Fold change vs veh, RWDD3 / RFU, BCAT1 / Fold change vs veh, BCAT1 / RFU, EDEM3 / Fold change vs veh, EDEM3 / RFU, TMEM33 / Fold change vs veh, TMEM33 / RFU, WDR75 / Fold change vs veh, WDR75 / RFU, AHCTF1 / Fold change vs veh, AHCTF1 / RFU, TFRC / Fold change vs veh, TFRC / RFU, ZDHHC17 / Fold change vs veh, ZDHHC17 / RFU, NOM1 / Fold change vs veh, NOM1 / RFU, ARL8B / Fold change vs veh, ARL8B / RFU, ZBTB11 / Fold change vs veh, ZBTB11 / RFU, TAMM41 / Fold change vs veh, TAMM41 / RFU, KIAA1704 /// LOC100996395 / Fold change vs veh, KIAA1704 /// LOC100996395 / RFU, ING1 / Fold change vs veh, ING1 / RFU, TRMT61B / Fold change vs veh, TRMT61B / RFU, FUBP3 / Fold change vs veh, FUBP3 / RFU, TP53 / Fold change vs veh, TP53 / RFU, TNKS2 / Fold change vs veh, TNKS2 / RFU, ZFP14 / Fold change vs veh, ZFP14 / RFU, ACTR2 / Fold change vs veh, ACTR2 / RFU, PPP3R1 / Fold change vs veh, PPP3R1 / RFU, PIK3R1 / Fold change vs veh, PIK3R1 / RFU, HNRNPA1 / Fold change vs veh, HNRNPA1 / RFU, RNF170 / Fold change vs veh, RNF170 / RFU, ZNF28 / Fold change vs veh, ZNF28 / RFU, RNGTT / Fold change vs veh, RNGTT / RFU, OGT / Fold change vs veh, OGT / RFU, BRD1 / Fold change vs veh, BRD1 / RFU, MARS / Fold change vs veh, MARS / RFU, ZNF655 / Fold change vs veh, ZNF655 / RFU, FAHD1 / Fold change vs veh, FAHD1 / RFU, BDP1 / Fold change vs veh, BDP1 / RFU, LRRCC1 / Fold change vs veh, LRRCC1 / RFU, ARID1A / Fold change vs veh, ARID1A / RFU, ZNF146 / Fold change vs veh, ZNF146 / RFU, ZNF330 / Fold change vs veh, ZNF330 / RFU, GPN3 / Fold change vs veh, GPN3 / RFU, C9orf123 / Fold change vs veh, C9orf123 / RFU, N4BP2L2 / Fold change vs veh, N4BP2L2 / RFU, ARFIP1 / Fold change vs veh, ARFIP1 / RFU, FAM179B / Fold change vs veh, FAM179B / RFU, BCL10 / Fold change vs veh, BCL10 / RFU, UHRF1BP1L / Fold change vs veh, UHRF1BP1L / RFU, BET1 / Fold change vs veh, BET1 / RFU, CNOT2 / Fold change vs veh, CNOT2 / RFU, ZNF268 / Fold change vs veh, ZNF268 / Fold change vs veh, ZNF507 / RFU, DGCR2 / Fold change vs veh, DGCR2 / RFU, WDSUB1 / Fold change vs veh, WDSUB1 / Fold change vs veh, HSP90B1 /// MIR3652 / RFU, ADSS / Fold change vs veh, ADSS / RFU, GK / Fold change vs veh, GK / RFU, ZNF148 / Fold change vs veh, ZNF148 / RFU, TAF9 / Fold change vs veh, TAF9 / RFU, SLC1A5 / Fold change vs veh, SLC1A5 / RFU, SLMO2 / Fold change vs veh, SLMO2 / RFU, ABCC4 / Fold change vs veh, ABCC4 / RFU, LOC101060439 /// RAP1B / Fold change vs veh, LOC101060439 /// RAP1B / RFU, RFX7 / Fold change vs veh, RFX7 / RFU, GTPBP10 / Fold change vs veh, GTPBP10 / RFU, CNEP1R1 / Fold change vs veh, CNEP1R1 / RFU, BIVM-ERCC5 /// ERCC5 / Fold change vs veh, BIVM-ERCC5 /// ERCC5 / RFU, ILF3 / Fold change vs veh, ILF3 / RFU 11762660_at / Fold change /veh 11762660_at / RFU VCAN (11757783_s_at) / Fold change /veh VCAN (11757783_s_at) / RFU DDX43 (11728927_at) / Fold change /veh DDX43 (11728927_at) / RFU KRT8 (11758188_x_at) / Fold change /veh KRT8 (11758188_x_at) / RFU NKD1 (11759106_at) / Fold change /veh NKD1 (11759106_at) / RFU SRD5A1 (11742802_a_at) / Fold change /veh SRD5A1 (11742802_a_at) / RFU TPSAB1 /// TPSB2 (11721975_s_at) / Fold change /veh TPSAB1 /// TPSB2 (11721975_s_at) / RFU GSTM3 (11746129_a_at) / Fold change /veh GSTM3 (11746129_a_at) / RFU IL23R (11737362_x_at) / Fold change /veh IL23R (11737362_x_at) / RFU TMEM51 (11727254_a_at) / Fold change /veh TMEM51 (11727254_a_at) / RFU PIWIL2 (11732686_x_at) / Fold change /veh PIWIL2 (11732686_x_at) / RFU ORM1 (11744905_x_at) / Fold change /veh ORM1 (11744905_x_at) / RFU CCDC152 (11743942_at) / Fold change /veh CCDC152 (11743942_at) / RFU ECM1 (11717891_a_at) / Fold change /veh ECM1 (11717891_a_at) / RFU IL23R (11748794_a_at) / Fold change /veh IL23R (11748794_a_at) / RFU TNFAIP8L3 (11732012_x_at) / Fold change /veh TNFAIP8L3 (11732012_x_at) / RFU MBOAT4 (11741988_at) / Fold change /veh MBOAT4 (11741988_at) / RFU 11764193_at / Fold change /veh 11764193_at / RFU TMEM53 (11763286_at) / Fold change /veh TMEM53 (11763286_at) / RFU MAGEB2 (11727129_at) / Fold change /veh MAGEB2 (11727129_at) / RFU TMEM200A (11744735_a_at) / Fold change /veh TMEM200A (11744735_a_at) / RFU CCDC152 (11751479_a_at) / Fold change /veh CCDC152 (11751479_a_at) / RFU FAM211A (11726209_a_at) / Fold change /veh FAM211A (11726209_a_at) / RFU RGS16 (11746705_a_at) / Fold change /veh RGS16 (11746705_a_at) / RFU VCAN (11755009_s_at) / Fold change /veh VCAN (11755009_s_at) / RFU RHOB (11743442_s_at) / Fold change /veh RHOB (11743442_s_at) / RFU RGS16 (11720943_a_at) / Fold change /veh RGS16 (11720943_a_at) / RFU RGS16 (11720944_at) / Fold change /veh RGS16 (11720944_at) / RFU, VPS4B / Fold change vs veh, VPS4B / RFU, CREB1 / Fold change vs veh, CREB1 / RFU, DNAJC13 / Fold change vs veh, DNAJC13 / RFU, GNAQ / Fold change vs veh, GNAQ / RFU, CDK5R1 / Fold change vs veh, CDK5R1 / RFU, ZRANB3 / Fold change vs veh, ZRANB3 / RFU, CUL4A / Fold change vs veh, CUL4A / RFU, CCNY / Fold change vs veh, CCNY / RFU, UFL1 / Fold change vs veh, UFL1 / RFU, COG3 / Fold change vs veh, COG3 / RFU, DIAPH2 / Fold change vs veh, DIAPH2 / RFU, SKA2 / Fold change vs veh, SKA2 / RFU, AFF3 / Fold change vs veh, AFF3 / RFU, LMF1 / Fold change vs veh, LMF1 / RFU, IPO11 / Fold change vs veh, IPO11 / RFU, DFFB / Fold change vs veh, DFFB / RFU, FOXP1 / Fold change vs veh, FOXP1 / RFU, CARD8 / Fold change vs veh, CARD8 / RFU, STRN3 / Fold change vs veh, STRN3 / RFU, ADK / Fold change vs veh, ADK / RFU, RASSF2 / Fold change vs veh, RASSF2 / RFU, WIPF1 / Fold change vs veh, WIPF1 / RFU, LARP1B / Fold change vs veh, LARP1B / RFU, RASA1 / Fold change vs veh, RASA1 / RFU, RB1 / Fold change vs veh, RB1 / RFU, PPFIA1 / Fold change vs veh, PPFIA1 / RFU, MAT2A / Fold change vs veh, MAT2A / RFU, CCT5 / Fold change vs veh, CCT5 / RFU, WDR92 / Fold change vs veh, WDR92 / RFU, CUX1 / Fold change vs veh, CUX1 / RFU, TTC7A / Fold change vs veh, TTC7A / RFU, TMEM135 / Fold change vs veh, TMEM135 / RFU, DEPTOR / Fold change vs veh, DEPTOR / RFU, CPM / Fold change vs veh, CPM / RFU, DNAJB6 / Fold change vs veh, DNAJB6 / RFU, CACNA2D3 / Fold change vs veh, CACNA2D3 / RFU, DTX4 / Fold change vs veh, DTX4 / RFU, TFCP2 / Fold change vs veh, TFCP2 / RFU, GMCL1 /// GMCL1P1 / Fold change vs veh, GMCL1 /// GMCL1P1 / RFU, AEBP2 / Fold change vs veh, AEBP2 / RFU, SNHG1 /// SNORD22 /// SNORD25 /// SNORD26 /// SNORD27 /// SNORD28 /// SNORD29 /// SNORD31 / Fold change vs veh, SNHG1 /// SNORD22 /// SNORD25 /// SNORD26 /// SNORD27 /// SNORD28 /// SNORD29 /// SNORD31 / Fold change (Aza/veh), C12orf56 (ProbeSet 11735607_a_at) / Fold change (ACY-1035/veh), C12orf56 (ProbeSet 11735607_a_at) / Fold change (Aza/veh), FGFR1OP (ProbeSet 11751329_s_at) / Fold change (ACY-1035/veh), FGFR1OP (ProbeSet 11751329_s_at) / Fold change (Aza/veh), VPS36 (ProbeSet 11739960_a_at) / Fold change (ACY-1035/veh), VPS36 (ProbeSet 11739960_a_at) / RFU SYPL1 (11715823_x_at) / Fold change /veh SYPL1 (11715823_x_at) / RFU IGFBP7 (11715501_s_at) / Fold change /veh IGFBP7 (11715501_s_at) / RFU REEP3 (11722064_at) / Fold change /veh REEP3 (11722064_at) / RFU IGLL1 (11728026_x_at) / Fold change /veh IGLL1 (11728026_x_at): dose or concentration left out as unconfirmed
Settings: ProbeSet 11717876_a_at; LIST D

Nc1ccc(-c2cccs2)cc1NC(=O)c1ccc2c(c1)cc(C1CC1)n2CCN1CCOCC1 [ACY-1035]
Fold change vs veh, PPFIA1: 0.87
